Test system: sunburned skin
Assay: topical treatment of sunburned skin
Assay type: in vivo, human being
Details: compared with other anti-inflammatory drugs, such as Motrin® and Tolectin®
Excerpt: The present invention provides a method and composition for treating sunburned skin of a human being. The composition includes a mixture of indomethacin and a moisturizing lotion. […] It is believed that the skin, with the presence of the topical formulation, acts as a reservoir, absorbing large amounts of the indomethacin and slowly releasing the indomethacin into the skin and to other tissues. The skin may actually act as a depot or reservoir for the indomethacin. It is believed that the indomethacin is stabilized and solubilized by the moisturizing lotion wherein the moisturizing lotion enhances the absorption of the indomethacin through the skin and accordingly permits the drug to be employed topically for inflammation of the sunburned skin. […] This mixture level allows the Cetaphil® to act as a proper stabilizer and solubilizer for the indomethacin. A stronger or weaker indomethacin mixture may be created depending on the treatment. However, experimentation has shown that the above-noted mixture remains an effective mixture for the treatment of sunburned skin. In use, the disclosed amounts of indomethacin and Cetaphil® are mixed to create the appropriate composition. […] The moisturizing lotion provides moisture and a cooling sensation to the sunburned skin, and the indomethacin reduces the inflammation to the skin caused by the sunburn. […]

With `COc1ccc2c(c1)c(CC(=O)O)c(C)n2C(=O)c1ccc(Cl)cc1` [indomethacin, 1-(p-chlorobenzoyl)-5-methoxy-2-methylindole-3-acetic acid] the relieving sunburned skin was “far better results”.
